Data reported in patent US9187524B2, “Broad spectrum antibiotic arylomycin analogs” (The Scripps Research Institute, priority 2010, dated 2015).
In brackets after ≈: the same amount, converted by molar mass. Read-outs that look alike come from different tables or passages of the source.

Columns and labels:
[1] = tested on: E. coli strains harboring the indicated amino acid at SPase residue 84; experiment: microbe, parasite or virus in culture; assay type: cell-based; conditions: Escherichia coli
S. aureus Rosenbach 328 = experiment: microbe, parasite or virus in culture; assay type: cell-based; conditions: Staphylococcus aureus; MRSA strain
[2] = tested on: lepB(P29S) S. aureus 8325; experiment: microbe, parasite or virus in culture; assay type: cell-based, Staphylococcus aureus; conditions: for MIC: Staphylococcus aureus
C. glutamicum = experiment: microbe, parasite or virus in culture; assay type: cell-based, Corynebacterium glutamicum; conditions: for MIC: Corynebacterium glutamicum
[3] = tested on: lepB(P84L) P. aeruginosa PAO1; experiment: microbe, parasite or virus in culture; assay type: cell-based, Pseudomonas aeruginosa; conditions: for MIC: Pseudomonas aeruginosa
Helicobacter pylori = experiment: microbe, parasite or virus in culture; assay type: cell-based
[4] = tested on: E. coli and P. aeruginosa serine mutants; experiment: MIC after permeabilizing with polymyxin B nonapeptide; assay type: cell-based
Francisella tularensis = experiment: microbe, parasite or virus in culture; assay type: cell-based
wild type E. coli MG1655 = experiment: microbe, parasite or virus in culture; assay type: cell-based, Escherichia coli; conditions: for MIC: Escherichia coli
[5] = tested on: spsB(S29P) S. epidermidis RP62A; experiment: microbe, parasite or virus in culture; assay type: cell-based, Staphylococcus epidermidis; conditions: for MIC: Staphylococcus epidermidis
Rhodococcus erythropolis = experiment: microbe, parasite or virus in culture; assay type: cell-based; conditions: Table 13
[6] = tested on: wild type P. aeruginosa PAO1; experiment: microbe, parasite or virus in culture; assay type: cell-based, Pseudomonas aeruginosa; conditions: for MIC: Pseudomonas aeruginosa
[7] = biological target: T1, full-length P84S E. coli SPase (Ser-variant) (Escherichia coli, UniProt P00803, P84S); experiment: biochemical; assay type: binding
T1 construct: Full length His-tagged E. coli SPase proteins were expressed in BL21(DE3); His6; made in house; host or cells: E. coli BL21(DE3)

Prevotella copris = experiment: microbe, parasite or virus in culture; assay type: cell-based; conditions: Table 13
[8] = Table 2B, SPase without resistance-conferring Pro
[9] = Table 2B, SPase with resistance-conferring Pro

In the case of `CCCCCCCCCCCCCCCC(=O)N(C)[C@H](CO)C(=O)N[C@H](C)C(=O)NCC(=O)N(C)[C@@H]1C(=O)N[C@@H](C)C(=O)N[C@H](C(=O)O)Cc2ccc(O)c(c2)-c2cc1ccc2O` [Arylomycin C16], the MIC ([1]; read-out: MIC, E. coli SPase residue 84 His variant) is reported as 4 µg/mL (≈ 4.54 µM), the MIC ([1]; read-out: MIC, E. coli SPase residue 84 Phe or His variant) is reported as 2 µg/mL (≈ 2.27 µM) and the MIC ([1]; read-out: MIC, E. coli with Pro at SPase residue 84) is reported as > 256 µg/mL. For the same molecule, the MIC ([1]; read-out: MIC, E. coli with any other amino acid at SPase residue 84) was ≤ 16 µg/mL, the MIC (S. aureus Rosenbach 328) was 25 µg/mL (≈ 28.4 µM) and the MIC ([2]; read-out: MIC, S. aureus P29S) was 8 µg/mL (≈ 9.08 µM). For the same molecule, the MIC ([2]; read-out: MIC, S. aureus PAS8001) was 2 µg/mL (≈ 2.27 µM), the MIC ([2]; read-out: MIC, Sensitive Sa) was 2 µg/mL (≈ 2.27 µM) and the “MIC, Sensitive Sa” value [2, 8] was 2 µg/mL (≈ 2.27 µM). For the same molecule, the MIC (C. glutamicum; Table 4, read-out: MIC, C. glutamicum) was 2 µg/mL (≈ 2.27 µM), the MIC (C. glutamicum; text b755, read-out: MIC, Corynebacterium glutamicum) was 2 µg/mL (≈ 2.27 µM) and the “MIC, Corynebacterium glutamicum” value (C. glutamicum; Table 13, […]) was 2 µg/mL (≈ 2.27 µM). For the same molecule, the MIC ([3]; PAO1, read-out: MIC, P. aeruginosa P84L) was 4 µg/mL (≈ 4.54 µM), the MIC ([3]; PAO1, read-out: MIC, Sensitive Pa) was 8 µg/mL (≈ 9.08 µM) and the “MIC, Sensitive Pa” value [3, 8] was 8 µg/mL (≈ 9.08 µM). For the same molecule, the MIC (Helicobacter pylori; Table 13, […], read-out: MIC, Helicobacter pylori) was 4 µg/mL (≈ 4.54 µM), the MIC (Helicobacter pylori; read-out: MIC, H. pylori) was 4 µg/mL (≈ 4.54 µM) and the “decrease of MIC on permeabilizing with polymyxin B nonapeptide” value [4] was ≤ 4 fold. The MIC (Francisella tularensis; read-out: MIC, Francisella tularensis clinical isolate) was 32 µg/mL (≈ 36.3 µM), the MIC (Francisella tularensis; read-out: MIC, Francisella tularensis clinical isolates, 8 of nineteen clinical isolates) was 4 to 16 µg/mL (≈ 4.54 to 18.2 µM) and the MIC (Francisella tularensis; read-out: MIC, Francisella tularensis clinical isolates, remainder of nineteen clinical isolates) was > 64 µg/mL. For the same molecule, the MIC (wild type E. coli MG1655; MG1655, read-out: MIC, Resistant Ec) was > 64 µg/mL, the MIC (wild type E. coli MG1655; MG1655, Table 11, […], read-out: MIC, E. coli MG1655) was > 128 µg/mL and the MIC (wild type E. coli MG1655; MG1655, Table 13, […], read-out: MIC, Escherichia coli) was > 128 µg/mL. For the same molecule, the MIC (wild type E. coli MG1655; MG1655, read-out: MIC, E. coli) was > 64 µg/mL, the “MIC, Resistant Ec” value (wild type E. coli MG1655; [9]) was >64 µg/mL and the MIC ([5]; read-out: MIC, Resistant Se) was 8 µg/mL (≈ 9.08 µM). For the same molecule, the MIC ([5]; read-out: MIC, S. epidermidis PAS9001) was 8 µg/mL (≈ 9.08 µM), the MIC ([5]; read-out: MIC, resistant S. epidermidis) was 8 µg/mL (≈ 9.08 µM) and the “MIC, Resistant Se” value [5, 9] was 8 µg/mL (≈ 9.08 µM). The “fold elevated MIC compared to the wild type strain, Ser to Pro at position 29” value ([5]; ~75% of selected S. epidermidis mutants) was 32 fold, the MIC (Rhodococcus erythropolis) was 16 µg/mL (≈ 18.2 µM) and the MIC ([6]; PAO1, read-out: MIC, Resistant Pa) was > 64 µg/mL. For the same molecule, the MIC ([6]; PAO1, Table 11, […], read-out: MIC, P. aeruginosa PAO1) was > 128 µg/mL, the MIC ([6]; PAO1, Table 13, […], read-out: MIC, Pseudomonas aeruginosa) was > 128 µg/mL and the “MIC, Resistant Pa” value [6, 9] was >64 µg/mL. For the same molecule, the Kd [7] was 5.7 ± 1 nM and the MIC (Prevotella copris) was > 16 µg/mL.
